Measured values from patent US20250092065A1, “2-(INDAZOL-5-YL)-6-(PIPERIDIN-4-YL)-1,7-NAPHTHYRIDINE DERIVATIVES AND RELATED COMPOUNDS AS MODULATORS FOR SPLICING NUCLEIC ACIDS AND FOR THE TREATMENT OF PROLIFERATIVE DISEASES” (REMIX THERAPEUTICS INC., priority 2022, published 2025).
Read-outs that look alike come from different tables or passages of the source.

Columns and labels:
[1] = tested on: HTT; assay: HiBiT protein abundance assay, HTT (K562 HiBiT knock-in); format: cell-based, human; details: HiBiT knock-in K562 cells, 24 hours, top dose 10 μM
Procedure, shortened: (§1)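 Luminescence readout: Nano-Glo HiBiT lytic detection after 24 h compound exposure of K562 HiBiT knock-in cells, 10000 cells/well. Dosing 10-pt, 3-fold, top 10 μM final. % response vs untreated parental K562 and DMSO controls; 4PL fit, IC50 = concentration giving 50% protein abundance.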

[2] = tested on: MYB mRNA; assay: RT-qPCR splicing assay, MYB mRNA canonical (CJ) and alternative (AJ) junction; format: cell-based, human; details: Homo sapiens; for AC50: MYB alternative junction mRNA, read-out: MYB AJ (increase in AJ mRNA, AC50)
Procedure, shortened: (§2)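 Canonical and alternative-exon junction isoforms were quantified by RT-qPCR in cell lysates, with ΔCt against a housekeeper (GAPDH/GUSB/PPIA), then ΔΔCt vs DMSO, converted to 2^(−ΔΔCt) and percent response. K562 or A673 cells were exposed for 24 h to 11 concentrations (3-fold, top final 10 uM).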

[3] = tested on: Target C; assay: HiBiT protein abundance assay, Target C (K562 HiBiT knock-in); format: cell-based, human; details: HiBiT knock-in K562 cells, 24 hours, top dose 10 μM
Procedure, shortened: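 K562 HiBiT knock-in cells (10000/well) were treated 24 h at 37° C with a 10-point 3-fold dilution series (top 10 μM final, ≤0.25% DMSO). HiBiT luminescence was read after lytic LgBiT detection. Percent response used unmodified K562 and DMSO-treated knock-in controls, and IC50 came from a four-parameter fit at 50% of untreated.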

[4] = tested on: MYB; assay: HiBiT protein abundance assay, MYB (K562 HiBiT knock-in); format: cell-based, human; details: HiBiT knock-in K562 cells, 24 hours, top dose 10 μM
Procedure, shortened: as §1

[5] = tested on: SMN2 mRNA; assay: RT-qPCR splicing assay, SMN2 mRNA; format: cell-based, human; details: Homo sapiens, canonical junction qPCR panel, Table 4; read-out: SMN2 IC50 (decrease in CJ mRNA levels)
Procedure, shortened: as §2

[6] = tested on: K562 cells; assay: Cell Titer Glo 2.0 cell viability (toxicity) assay, K562; details: 500 cells/well, 72 hours
[7] = MYB canonical junction mRNA, RT-qPCR, read-out: MYB CJ (decrease in CJ mRNA levels, IC50)
[8] = canonical junction qPCR panel, Table 4, read-out: MYB IC50 (decrease in CJ mRNA levels)

Cc1c(O)c(-c2ccc3nc(N4CCC(NC5COC5)C4)ccc3n2)cc2cn(C)nc12 (stereo not drawn) [Compound 302, 2,7-dimethyl-5-{6-[3-(oxetan-3-ylamino)pyrrolidin-1-yl]-1,5-naphthyridin-2-yl}Indazol-6-ol] showed an IC50 [1] of 100 to 1000 nM, an AC50 ([2]; RT-qPCR) of 100 to 1000 nM and an IC50 [2, 7] of 100 to 1000 nM. It also gave an IC50 [2, 8] of 100 to 1000 nM, an IC50 [3] of 100 to 1000 nM and an IC50 [4] of 100 to 1000 nM. The IC50 [5] was under 100 nM and the “Effect of Exemplary Compounds on Cell Viability, K562” value (shortened to “Effect of Exemplary Compounds”) [6] was “C (C represents 1000-9999 nM)”.
Work on Cc1nc2c(C)c(O)c(-c3ccc4nc(N5CCC(NC6(C)CC6)C5)ccc4n3)cc2o1 (stereo not drawn) [Compound 309, 2,4-dimethyl-6-(6-{3-[(1-methylcyclopropyl)amino]pyrrolidin-1-yl}-1,5-naphthyridin-2-yl)-1,3-benzoxazol-5-ol] yielded an IC50 [1] of under 100 nM, an AC50 ([2]; RT-qPCR) of under 100 nM and an IC50 [2, 7] of under 100 nM. The IC50 [2, 8] was under 100 nM, the IC50 [3] was under 100 nM and the IC50 [4] was under 100 nM. The IC50 [5] was under 100 nM and the “Effect of Exemplary Compounds” value [6] was “B (B represents 100-1000 nM)”.
In the case of Cc1nc2c(C)c(O)c(-c3ccc4nc(N5CCC(NC(C)C)C5)ccc4n3)cc2o1 (stereo not drawn) [Compound 312, 6-{6-[3-(isopropylamino)pyrrolidin-1-yl]-1,5-naphthyridin-2-yl}-2,4-dimethyl-1,3-benzoxazol-5-ol], the IC50 [1] is reported as under 100 nM, the AC50 ([2]; RT-qPCR) is reported as under 100 nM and the IC50 [2, 7] is reported as under 100 nM. It also gave an IC50 [2, 8] of under 100 nM, an IC50 [3] of under 100 nM and an IC50 [4] of under 100 nM. The IC50 [5] was under 100 nM and the “Effect of Exemplary Compounds” value [6] was “A (A represents <100 nM)”.
In the case of Cn1cc2cc(-c3ccc4nc(N5CCC(NC6CCC6)C5)ccc4n3)c(O)c(F)c2n1 (stereo not drawn) [Compound 315, 5-{6-[3-(cyclobutylamino)pyrrolidin-1-yl]-1,5-naphthyridin-2-yl}-7-fluoro-2-methylindazol-6-ol], the IC50 [1] is reported as under 100 nM, the AC50 ([2]; RT-qPCR) is reported as under 100 nM and the IC50 [2, 7] is reported as under 100 nM. The IC50 [2, 8] was under 100 nM, the IC50 [3] was under 100 nM and the IC50 [4] was under 100 nM. For the same compound, the IC50 [5] was under 100 nM and the “Effect of Exemplary Compounds” value [6] was “A (A represents <100 nM)”.
Cc1c(O)c(-c2ccc3nc(N4CCC(NC(C)C)C4)ccc3n2)cc2cn(C)nc12 (stereo not drawn) [Compound 318, 5-{6-[3-(isopropylamino)pyrrolidin-1-yl]-1,5-naphthyridin-2-yl}-2,7-dimethylindazol-6-ol] was tested, and the IC50 [1] was under 100 nM, the AC50 ([2]; RT-qPCR) was under 100 nM and the IC50 [2, 7] was under 100 nM. It also gave an IC50 [2, 8] of under 100 nM, an IC50 [3] of under 100 nM and an IC50 [4] of under 100 nM. The IC50 [5] was under 100 nM and the “Effect of Exemplary Compounds” value [6] was “A (A represents <100 nM)”.
For Cc1c(O)c(-c2ccc3nc(N4CC[C@H](NC(C)C)C4)ccc3n2)cc2cn(C)nc12 [Compound 320], the IC50 [1] was under 100 nM, the AC50 ([2]; RT-qPCR) was under 100 nM and the IC50 [2, 7] was under 100 nM. It also gave an IC50 [2, 8] of under 100 nM, an IC50 [3] of under 100 nM and an IC50 [4] of under 100 nM. For the same compound, the IC50 [5] was under 100 nM and the “Effect of Exemplary Compounds” value [6] was “B (B represents 100-1000 nM)”.
Cc1nc2c(F)c(O)c(-c3ccc4nc(N5CCC(NC6(C)CC6)C5)ccc4n3)cc2o1 (stereo not drawn) [Compound 325, 4-fluoro-2-methyl-6-(6-{3-[(1-methylcyclopropyl)amino]pyrrolidin-1-yl}-1,5-naphthyridin-2-yl)-1,3-benzoxazol-5-ol] gave an IC50 [1] of under 100 nM, an AC50 ([2]; RT-qPCR) of under 100 nM and an IC50 [2, 7] of under 100 nM. For the same compound, the IC50 [2, 8] was under 100 nM, the IC50 [3] was under 100 nM and the IC50 [4] was under 100 nM. The IC50 [5] was under 100 nM and the “Effect of Exemplary Compounds” value [6] was “B (B represents 100-1000 nM)”.
Cc1nc2c(F)c(O)c(-c3ccc4nc(N5CCC(NC(C)C)C5)ccc4n3)cc2o1 (stereo not drawn) [Compound 328, 4-fluoro-6-{6-[3-(isopropylamino)pyrrolidin-1-yl]-1,5-naphthyridin-2-yl}-2-methyl-1,3-benzoxazol-5-ol] gave an IC50 [1] of under 100 nM, an AC50 ([2]; RT-qPCR) of under 100 nM and an IC50 [2, 7] of under 100 nM. The IC50 [2, 8] was under 100 nM, the IC50 [3] was under 100 nM and the IC50 [4] was under 100 nM. For the same compound, the IC50 [5] was under 100 nM and the “Effect of Exemplary Compounds” value [6] was “A (A represents <100 nM)”.
In the case of CN[C@@H]1CCN(c2ccc3nc(-c4cc(F)c5nc(C)cn5c4)ncc3n2)C1 [Compound 331, (3R)-1-(2-{8-fluoro-2-methylimidazo[1,2-a]pyridin-6-yl}pyrido[3,2-d]pyrimidin-6-yl)-N-methylpyrrolidin-3-amine], the IC50 [1] is reported as 100 to 1000 nM, the AC50 ([2]; RT-qPCR) is reported as 100 to 1000 nM and the IC50 [2, 7] is reported as under 100 nM. The IC50 [2, 8] was under 100 nM, the IC50 [3] was 100 to 1000 nM and the IC50 [4] was 100 to 1000 nM. For the same compound, the IC50 [5] was under 100 nM and the “Effect of Exemplary Compounds” value [6] was “B (B represents 100-1000 nM)”.
For CN[C@H]1CCN(c2ccc3nc(-c4cc(F)c5nc(C)cn5c4)ncc3n2)C1 [Compound 332, (S)-1-(2-(8-fluoro-2-methylimidazo[1,2-a]pyridin-6-yl)pyrido[3,2-d]pyrimidin-6-yl)-N-methylpyrrolidin-3-amine], the IC50 [1] was 100 to 1000 nM, the AC50 ([2]; RT-qPCR) was 100 to 1000 nM and the IC50 [2, 7] was 100 to 1000 nM. For the same compound, the IC50 [2, 8] was 100 to 1000 nM, the IC50 [3] was 100 to 1000 nM and the IC50 [4] was 100 to 1000 nM. For the same compound, the IC50 [5] was under 100 nM and the “Effect of Exemplary Compounds” value [6] was “B (B represents 100-1000 nM)”.
CC(C)(C)NC1CCN(c2ccc3nc(-c4cc5oc(C6CC6)nc5cc4O)ccc3n2)C1 (stereo not drawn) [Compound 333, 6-{6-[3-(tert-butylamino)pyrrolidin-1-yl]-1,5-naphthyridin-2-yl}-2-cyclopropyl-1,3-benzoxazol-5-ol] showed an IC50 [1] of 100 to 1000 nM, an AC50 ([2]; RT-qPCR) of 100 to 1000 nM and an IC50 [2, 7] of 100 to 1000 nM. It also gave an IC50 [2, 8] of 100 to 1000 nM, an IC50 [3] of 100 to 1000 nM and an IC50 [4] of 100 to 1000 nM. The IC50 [5] was 100 to 1000 nM and the “Effect of Exemplary Compounds” value [6] was “B (B represents 100-1000 nM)”.
Compound COCc1nc2cc(O)c(-c3ccc4nc(N5CCC(NC(C)(C)C)C5)ccc4n3)cc2o1 (stereo not drawn) [Compound 334, 6-{6-[3-(tert-butylamino)pyrrolidin-1-yl]-1,5-naphthyridin-2-yl}-2-(methoxymethyl)-1,3-benzoxazol-5-ol] has an IC50 [1] of 100 to 1000 nM, an AC50 ([2]; RT-qPCR) of 100 to 1000 nM and an IC50 [2, 7] of 100 to 1000 nM. For the same compound, the IC50 [2, 8] was 100 to 1000 nM, the IC50 [3] was 100 to 1000 nM and the IC50 [4] was 100 to 1000 nM. For the same compound, the IC50 [5] was 100 to 1000 nM and the “Effect of Exemplary Compounds” value [6] was “B (B represents 100-1000 nM)”.
For COc1cc2nc(C3COC3)oc2cc1-c1ccc2nc(N3CCC(NC(C)(C)C)C3)ccc2n1 (stereo not drawn) [Compound 335], the IC50 [1] was 1000 to 10000 nM, the AC50 ([2]; RT-qPCR) was 1000 to 10000 nM and the IC50 [2, 7] was 1000 to 10000 nM. The IC50 [2, 8] was 1000 to 10000 nM, the IC50 [3] was 1000 to 10000 nM and the IC50 [4] was 1000 to 10000 nM. For the same compound, the IC50 [5] was 1000 to 10000 nM and the “Effect of Exemplary Compounds” value [6] was “C (C represents 1000-9999 nM)”.
Work on CC(C)(C)NC1CCN(c2ccc3nc(-c4cc5oc(CO)nc5cc4O)ccc3n2)C1 (stereo not drawn) [Compound 336, 6-{6-[3-(tert-butylamino)pyrrolidin-1-yl]-1,5-naphthyridin-2-yl}-2-(hydroxymethyl)-1,3-benzoxazol-5-ol] yielded an IC50 [1] of under 100 nM, an AC50 ([2]; RT-qPCR) of 100 to 1000 nM and an IC50 [2, 7] of 100 to 1000 nM. The IC50 [2, 8] was 100 to 1000 nM, the IC50 [3] was under 100 nM and the IC50 [4] was under 100 nM. For the same compound, the IC50 [5] was under 100 nM and the “Effect of Exemplary Compounds” value [6] was “A (A represents <100 nM)”.
In the case of CNC1CCN(c2ccc3nc(-c4cc5cn(C)nc5c(C)c4O)ncc3n2)C1 (stereo not drawn) [Compound 337, 2,7-dimethyl-5-{6-[3-(methylamino)pyrrolidin-1-yl]pyrido[3,2-d]pyrimidin-2-yl}indazol-6-ol], the IC50 [1] is reported as 100 to 1000 nM, the AC50 ([2]; RT-qPCR) is reported as under 100 nM and the IC50 [2, 7] is reported as under 100 nM. For the same compound, the IC50 [2, 8] was under 100 nM, the IC50 [3] was 100 to 1000 nM and the IC50 [4] was under 100 nM. For the same compound, the IC50 [5] was under 100 nM and the “Effect of Exemplary Compounds” value [6] was “A (A represents <100 nM)”.
